Source: patent EP0199888B1, “Control of heme and iron concentrations in body tissues” (THE ROCKEFELLER UNIVERSITY, priority 1985, dated 1986)

Legend:
[1] = system: bile duct cannulated rats; experiment: Excretion of heme and bilirubin in bile after infusion of heat-damaged erythrocytes; assay type: in vivo
[2] = system: bile duct cannulated rats; experiment: Excretion of heme and bilirubin in bile after infusion of exogenous heme
[3] = system: bile duct cannulated rats; experiment: Output of biliary iron by graphite furnace atomic absorption analysis; assay type: in vivo; details: after administration of Sn-PP; representative study, typical of all animals studied

| Compound | biliary heme excretion ([1]; 8 rats, heat-damaged erythrocytes i.v. bolus (equivalent to 8.5 umol heme/kg b.w.) plus Sn-PP 10 umol/kg b.w. i.v., pyridine hemochromogen method) | combined amounts of heme plus bilirubin in bile ([1]; heat-damaged erythrocytes plus Sn-PP 10 umol/kg b.w. i.v., average, similar in the control group) | increase in biliary bilirubin output ([1]; heat-damaged erythrocytes plus Sn-PP 10 umol/kg b.w. i.v., in all but one Sn-PP treated animal) | biliary heme excretion ([2]; 5 rats, heme 6.1 µmol/kg b.w. i.v. bolus plus Sn-PP 10 µmol/kg b.w. i.v. at the same time) | amounts of heme excreted in bile relative to control animals treated with heme alone ([2]; heme 6.1 µmol/kg b.w. plus Sn-PP 10 µmol/kg b.w. i.v.) | increase in biliary bilirubin resulting from the infusion of heme ([2]; heme 6.1 µmol/kg b.w. plus Sn-PP 10 µmol/kg b.w. i.v., all animals) | amounts of heme excreted in bile ([2]; heme 6.1 µmol/kg b.w. plus Sn-PP 10 µmol/kg b.w. i.v., mean) | output of biliary iron [3] | total amount of exogenous heme recovered in the bile as both heme and bilirubin ([2]; heme alone, 6.1 µmol/kg b.w. i.v. bolus, average) | total amount of heme excreted in the bile ([2]; heme alone, 6.1 µmol/kg b.w. i.v. bolus, average of 5 rats) |
| --- | --- | --- | --- | --- | --- | --- | --- | --- | --- | --- |
| C=Cc1c2[n-]c(c1C)/C=c1\[n-]/c(c(C)c1C=C)=C\c1[n-]c(c(CCC(=O)O)c1C)C=c1[n-]/c(c(C)c1CCC(=O)O)=C\2.[Sn+4] [Sn-PP, tin protoporphyrin-IX] | prompt and marked increase | about 50 % of the dose of heme administered | greatly diminished | prompt and marked increase | 3-4 fold | diminished | 51 % of the dose of heme injected | incresed markedly |  |  |
| C=CC1=C(C)c2cc3[n-]c(cc4[n-]c(cc5nc(cc1n2)C(C)=C5C=C)c(C)c4CCC(=O)O)c(CCC(=O)O)c3C.[Fe+2] [heme, ferroprotoporphyrin IX] |  |  |  |  |  |  |  |  | 32 % of the dose administered | 14 % of the dose injected |
